Literature values as cited in paper doi:10.1101/2023.11.06.565863v1 (bioRxiv, 2023).

Legend:
R1441C-LRRK2 MEFs [1] = system: R1441C-LRRK2 MEFs
R1441C-LRRK2 MEFs [2] = system: R1441C-LRRK2 MEFs; remark: listed apart in the source

C[C@@H]1CN(c2cc(-c3n[nH]c4ccc(OC5(C)CC5)cc34)ncn2)C[C@H](C)O1 [MLi2]
Ciliogenesis defects of R1441C-LRRK2 MEFs vs littermate wildtype MEFs (R1441C-LRRK2 MEFs [1]): reverted | Centrosome cohesion defects of R1441C-LRRK2 MEFs vs littermate wildtype MEFs (R1441C-LRRK2 MEFs [2]): reverted
